# Tested on: TFG-MET allograft tumors
# Assay: RNA-sequencing, differential expression and GSEA of TFG-MET allograft tumors
# Type: in vivo, mouse
# Experimental: Error bars display standard error of mean, statistical significance was determined using t-test analysis. (****;p<0.0001, ***;p<0.001, **;p<0.01, *;p<0.05). […] Each dot represents an individual replicate. Error bars display standard error of the mean.
# Each dot represents one gene.
# [1] = GSEA CAP vs Veh, C5 GO CC, padj 0.0837675
# [2] = GSEA CAP vs Veh, C5 GO CC, padj 0.118081
# [3] = GSEA CAP vs Veh, C5 GO CC, padj 0.15025
# [4] = GSEA CAP vs Veh, C5 GO CC, padj 0.172143
# [5] = GSEA CAP vs Veh, C5 GO CC, padj 0.185573
# [6] = GSEA CAP vs Veh, C5 GO CC, padj 0.189724
# [7] = GSEA CAP vs Veh, C5 GO CC, padj 0.205885
# [8] = GSEA CAP vs Veh, C5 GO CC, padj 0.207988
# [9] = capmatinib vs vehicle, PD cohort
compound,measurement,setting,value
CNC(=O)c1ccc(-c2cnc3ncc(Cc4ccc5ncccc5c4)n3n2)cc1F [Capmatinib],NES GOCC_TRIGLYCERIDE_RICH_PLASMA_LIPOPROTEIN_PARTICLE,[1],1.6067
same,NES GOCC_VESICLE_TETHERING_COMPLEX,[1],1.4789
same,NES GOCC_IMMUNOLOGICAL_SYNAPSE,"GSEA CAP vs Veh, C5 GO CC, padj 0.0851978",1.513
same,NES GOCC_TOR_COMPLEX,"GSEA CAP vs Veh, C5 GO CC, padj 0.0863609",-1.558
same,NES GOCC_POTASSIUM_CHANNEL_COMPLEX,"GSEA CAP vs Veh, C5 GO CC, padj 0.0898434",1.3322
same,NES GOCC_PHOTORECEPTOR_OUTER_SEGMENT,"GSEA CAP vs Veh, C5 GO CC, padj 0.0912598",1.398
same,NES GOCC_NON_MOTILE_CILIUM,"GSEA CAP vs Veh, C5 GO CC, padj 0.0963826",1.327
same,NES GOCC_COLLAGEN_TRIMER,"GSEA CAP vs Veh, C5 GO CC, padj 0.100203",1.361
same,NES GOCC_CYCLIN_DEPENDENT_PROTEIN_KINASE_HOLOENZYME_COMPLEX,"GSEA CAP vs Veh, C5 GO CC, padj 0.101289",-1.485
same,NES GOCC_PHAGOPHORE_ASSEMBLY_SITE_MEMBRANE,"GSEA CAP vs Veh, C5 GO CC, padj 0.101632",1.59
same,NES GOCC_MICROTUBULE_END,"GSEA CAP vs Veh, C5 GO CC, padj 0.104588",-1.488
same,NES GOCC_MRNA_CLEAVAGE_AND_POLYADENYLATION_SPECIFICITY_FACTOR_COMPLEX,"GSEA CAP vs Veh, C5 GO CC, padj 0.106777",-1.514
same,NES GOCC_PERICENTRIOLAR_MATERIAL,"GSEA CAP vs Veh, C5 GO CC, padj 0.107544",-1.541
same,NES GOCC_SPERM_MIDPIECE,"GSEA CAP vs Veh, C5 GO CC, padj 0.11014",1.543
same,NES GOCC_FILAMENTOUS_ACTIN,"GSEA CAP vs Veh, C5 GO CC, padj 0.113803",-1.495
same,NES GOCC_CONDENSED_NUCLEAR_CHROMOSOME,"GSEA CAP vs Veh, C5 GO CC, padj 0.117551",-1.436
same,NES GOCC_ENDOPLASMIC_RETICULUM_EXIT_SITE,[2],-1.477
same,NES GOCC_MITOTIC_SPINDLE,[2],-1.3459
same,NES GOCC_TERTIARY_GRANULE_LUMEN,[2],1.448
same,NES GOCC_MICROTUBULE_ORGANIZING_CENTER,"GSEA CAP vs Veh, C5 GO CC, padj 0.119924",-1.201
same,NES GOCC_ESC_E_Z_COMPLEX,"GSEA CAP vs Veh, C5 GO CC, padj 0.125326",-1.503
same,NES GOCC_MITOCHONDRIAL_PROTEIN_CONTAINING_COMPLEX,"GSEA CAP vs Veh, C5 GO CC, padj 0.144325",1.2339
same,NES GOCC_MICROBODY_LUMEN,[3],1.378
same,NES GOCC_PLATELET_DENSE_GRANULE,[3],1.446
same,NES GOCC_POSTSYNAPTIC_CYTOSOL,[3],-1.504
same,NES GOCC_DNA_HELICASE_COMPLEX,"GSEA CAP vs Veh, C5 GO CC, padj 0.150544",-1.462
same,NES GOCC_H4_H2A_HISTONE_ACETYLTRANSFERASE_COMPLEX,"GSEA CAP vs Veh, C5 GO CC, padj 0.153451",-1.479
same,NES GOCC_T_TUBULE,"GSEA CAP vs Veh, C5 GO CC, padj 0.166785",1.333
same,NES GOCC_CELL_DIVISION_SITE,[4],-1.364
same,NES GOCC_CILIARY_MEMBRANE,[4],1.297
same,NES GOCC_NUCLEAR_INNER_MEMBRANE,[4],-1.39
same,NES GOCC_SPERM_PRINCIPAL_PIECE,[4],1.449
same,NES GOCC_PROTEIN_KINASE_COMPLEX,"GSEA CAP vs Veh, C5 GO CC, padj 0.174487",-1.355
same,NES GOCC_SARCOPLASMIC_RETICULUM_MEMBRANE,"GSEA CAP vs Veh, C5 GO CC, padj 0.176238",1.347
same,NES GOCC_TRANSCRIPTION_FACTOR_TFIID_COMPLEX,"GSEA CAP vs Veh, C5 GO CC, padj 0.181046",-1.393
same,NES GOCC_ENDOSOME_LUMEN,[5],1.406
same,NES GOCC_SPECIFIC_GRANULE_LUMEN,[5],1.358
same,NES GOCC_CLATHRIN_ADAPTOR_COMPLEX,[6],1.366
same,NES GOCC_MITOTIC_SPINDLE_POLE,[6],-1.382
same,NES GOCC_MEMBRANE_MICRODOMAIN,"GSEA CAP vs Veh, C5 GO CC, padj 0.192589",1.19
same,NES GOCC_CELL_BODY_MEMBRANE,"GSEA CAP vs Veh, C5 GO CC, padj 0.197703",1.35
same,NES GOCC_VACUOLAR_PROTON_TRANSPORTING_V_TYPE_ATPASE_COMPLEX,"GSEA CAP vs Veh, C5 GO CC, padj 0.198626",1.413
same,NES GOCC_DENDRITIC_SHAFT,[7],1.333
same,NES GOCC_NUCLEAR_OUTER_MEMBRANE,[7],-1.409
same,NES GOCC_SAGA_TYPE_COMPLEX,"GSEA CAP vs Veh, C5 GO CC, padj 0.206418",-1.409
same,NES GOCC_CLATHRIN_COAT,[8],1.308
same,NES GOCC_PHOTORECEPTOR_INNER_SEGMENT,[8],1.275
same,NES GOCC_INTEGRAL_COMPONENT_OF_SYNAPTIC_VESICLE_MEMBRANE,"GSEA CAP vs Veh, C5 GO CC, padj 0.210702",1.319
same,expression of Mapk signature genes in tumors,RNA-sequencing of treated allograft tumors,significant downregulation
same,"GSEA NES, PID_Atm_pathway",[9],-1.751
same,"GSEA NES, PID_Atr_pathway",[9],-2.041
same,expression of genes involved in the DNA repair machinery,"capmatinib-treated vs vehicle tumors, PD cohort",downregulated
